Legend:
Axl = target: T1, Axl (Homo sapiens, UniProt P30530); experiment: Phospho-AKT HTRF, HUVEC, Axl ABX-L, 8 pt; type: cell-based; conditions: HUVEC cells, pAkt(Ser473) HTRF, Axl ABX-L stimulation
T1 construct: Seed HUVECs (10K cells/well) in EBM-2 complete media; host or cells: HUVEC
T1 sequence (P30530 26-894): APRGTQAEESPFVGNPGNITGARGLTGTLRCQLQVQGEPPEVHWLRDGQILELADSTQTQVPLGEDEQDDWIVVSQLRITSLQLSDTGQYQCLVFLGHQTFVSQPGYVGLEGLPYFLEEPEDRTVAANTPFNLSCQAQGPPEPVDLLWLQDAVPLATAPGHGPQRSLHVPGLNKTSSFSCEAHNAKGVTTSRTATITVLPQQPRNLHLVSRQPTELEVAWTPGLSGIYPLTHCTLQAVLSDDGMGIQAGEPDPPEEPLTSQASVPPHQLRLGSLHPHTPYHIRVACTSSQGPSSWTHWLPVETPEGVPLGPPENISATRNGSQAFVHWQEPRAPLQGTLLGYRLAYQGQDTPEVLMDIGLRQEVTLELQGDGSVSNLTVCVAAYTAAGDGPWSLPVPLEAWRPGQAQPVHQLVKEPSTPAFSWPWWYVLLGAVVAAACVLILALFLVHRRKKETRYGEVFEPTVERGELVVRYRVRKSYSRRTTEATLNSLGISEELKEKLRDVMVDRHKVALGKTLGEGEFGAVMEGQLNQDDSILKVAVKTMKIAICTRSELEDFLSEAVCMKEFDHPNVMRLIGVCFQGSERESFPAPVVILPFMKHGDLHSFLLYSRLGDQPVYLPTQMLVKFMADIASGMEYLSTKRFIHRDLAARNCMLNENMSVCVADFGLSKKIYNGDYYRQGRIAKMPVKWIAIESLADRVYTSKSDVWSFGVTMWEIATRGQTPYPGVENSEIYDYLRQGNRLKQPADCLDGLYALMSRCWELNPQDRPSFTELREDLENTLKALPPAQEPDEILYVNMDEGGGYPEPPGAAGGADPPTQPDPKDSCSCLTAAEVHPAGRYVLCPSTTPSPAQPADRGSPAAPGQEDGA
Procedure: [The source words this procedure for another target and reports this target under the same test.] (§1) Example 13: PAKT HTRF-HUVEC Assay
(§2) Seed HUVECs (10K cells/well) in EBM-2 complete media (EBM-2 basal medium plus EGM-2 BulletKit supplements) overnight at 37° C., 5% CO2 in Costar 96-well white clear-bottom plates. Remove culture media and starve cells for 3-4 hours in 50 μL/well EBM-2 basal medium. Perform serial dilution of compounds in DMSO from 2.5 mM in 4-fold dilutions, and then dilute 1:125 in EBM-2 basal media. Mix 50 μL/well 2× compounds with 50 μL/well HUVECs in duplicate in Costar 96-well white clear-bottom plates. Incubate plates for 1 hour at 37° C., 5% CO2. Cross-link anti-human MerTK antibody to Biotin-SP-conjugated anti-mouse IgG antibody (1:1) to give final concentrations of 5 μg/mL of anti-human MerTK-XL. Stimulate HUVECs with 25 μL/well 5× anti-human MerTK-XL to give final concentrations of 1 ug/mL for 10 minutes at 37° C., 5% CO2. Completely remove media and lyse HUVECs with 40 uL:WELL per well of Cisbio HTRF 1× lysis buffer. Performed pAkt(Ser473) HTRF assay in ProxiPlate-384 Plus, white 384-shallow well microplate according to the vendor protocol and read plates with a SpectralMax Paradigm plate reader. Enter the HTRF values into Athena (Rigel) for curve fitting, EC50 calculation, and database storage.

MerTK = target: T2, MerTK (Homo sapiens, UniProt Q12866); experiment: Phospho-AKT HTRF, HUVEC, Mer-XL, 8 pt (pAKT HTRF-HUVEC assay, anti-human MerTK-XL stimulation); type: cell-based; conditions: HUVEC cells, pAkt(Ser473) HTRF, anti-human MerTK-XL stimulation 1 ug/mL 10 minutes
T2 construct: Seed HUVECs (10K cells/well) in EBM-2 complete media; host or cells: HUVEC
T2 sequence (Q12866 21-999): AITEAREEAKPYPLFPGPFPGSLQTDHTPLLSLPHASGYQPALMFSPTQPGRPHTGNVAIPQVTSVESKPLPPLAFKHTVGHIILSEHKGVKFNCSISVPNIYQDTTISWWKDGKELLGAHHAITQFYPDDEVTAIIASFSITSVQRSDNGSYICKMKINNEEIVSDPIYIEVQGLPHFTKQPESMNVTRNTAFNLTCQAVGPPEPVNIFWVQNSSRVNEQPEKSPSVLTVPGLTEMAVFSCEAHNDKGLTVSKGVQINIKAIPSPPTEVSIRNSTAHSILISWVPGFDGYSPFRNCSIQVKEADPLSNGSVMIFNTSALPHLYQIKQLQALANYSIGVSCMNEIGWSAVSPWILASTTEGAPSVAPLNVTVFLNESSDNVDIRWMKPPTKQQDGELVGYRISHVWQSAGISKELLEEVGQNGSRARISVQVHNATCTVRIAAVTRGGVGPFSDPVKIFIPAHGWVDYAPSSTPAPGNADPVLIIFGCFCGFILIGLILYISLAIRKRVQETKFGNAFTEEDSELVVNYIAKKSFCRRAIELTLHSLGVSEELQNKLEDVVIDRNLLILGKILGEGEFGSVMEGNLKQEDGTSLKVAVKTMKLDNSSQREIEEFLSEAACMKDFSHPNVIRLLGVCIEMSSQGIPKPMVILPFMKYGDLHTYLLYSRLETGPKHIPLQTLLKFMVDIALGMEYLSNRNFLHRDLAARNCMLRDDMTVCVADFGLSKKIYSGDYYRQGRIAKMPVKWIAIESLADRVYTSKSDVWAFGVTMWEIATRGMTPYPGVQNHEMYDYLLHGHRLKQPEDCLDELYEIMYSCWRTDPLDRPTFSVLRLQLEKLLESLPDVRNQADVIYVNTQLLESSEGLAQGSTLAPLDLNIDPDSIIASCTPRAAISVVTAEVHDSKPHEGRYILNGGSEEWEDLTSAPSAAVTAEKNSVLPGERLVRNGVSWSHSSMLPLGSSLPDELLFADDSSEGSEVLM
Procedure: as §1, §2

Compound: COc1cc2c(Oc3ccc(NC(=O)c4cccc(N5CCC(O)CC5)n4)nc3)ccnc2cc1OCCCN1CCOCC1 [Compound 24, 6-(4-hydroxypiperidin-1-yl)-N-(5-((6-methoxy-7-(3-morpholinopropoxy)quinolin-4-yl)oxy)pyridin-2-yl)picolinamide]
- EC50 (Axl): 742 nM
- EC50 (MerTK): 654 nM

Compound: COc1cc2c(Oc3ccc(NC(=O)c4csc(Br)n4)nc3)ccnc2cc1OCCCN1CCOCC1 [Compound 40, 2-bromo-N-(5-((6-methoxy-7-(3-morpholinopropoxy)quinolin-4-yl)oxy)pyridin-2-yl)thiazole-4-carboxamide]
- EC50 (Axl): 147 nM
- EC50 (MerTK): 27.2 nM

Compound: COc1cc2c(Oc3ccc(NC(=O)c4nc(-c5ccccc5)c5c(n4)C4CCN5CC4)cc3F)ccnc2cc1OCCCN1CCOCC1 [Compound 36, N-(3-fluoro-4-((6-methoxy-7-(3-morpholinopropoxy)quinolin-4-yl)oxy)phenyl)-4-phenyl-7,8-dihydro-6H-5,8-ethanopyrido[3,2-d]pyrimidine-2-carboxamide]
- EC50 (Axl): 5.8 nM
- EC50 (MerTK): 9.5 nM

Compound: COc1cc2c(Oc3ccc(NC(=O)c4cccc(N5CC(F)(F)C5)n4)nc3)ccnc2cc1OCCCN1CCOCC1 [Compound 30, 6-(3,3-difluoroazetidin-1-yl)-N-(5-((6-methoxy-7-(3-morpholinopropoxy)quinolin-4-yl)oxy)pyridin-2-yl)picolinamide]
- EC50 (Axl): 110 nM
- EC50 (MerTK): 9.4 nM

Compound: COc1cc2c(Oc3ccc(NC(=O)c4cccc(N5CCCCC5)n4)nc3)ccnc2cc1OCCCN1CCOCC1 [Compound 23, N-(5-((6-methoxy-7-(3-morpholinopropoxy)quinolin-4-yl)oxy)pyridin-2-yl)-6-(piperidin-1-yl)picolinamide]
- EC50 (Axl): 66.8 nM
- EC50 (MerTK): 13 nM

Compound: COc1cc2c(Oc3ccc(NC(=O)c4cc(N5CCC(F)(F)CC5)ccn4)nc3)ccnc2cc1OCCCN1CCOCC1 [Compound 21, 4-(4,4-difluoropiperidin-1-yl)-N-(5-((6-methoxy-7-(3-morpholinopropoxy)quinolin-4-yl)oxy)pyridin-2-yl)picolinamide]
- EC50 (Axl): 62.8 nM
- EC50 (MerTK): 80.6 nM

Compound: COc1cc2c(Oc3ccc(NC(=O)c4nc(-c5ccccc5)c5c(n4)C4CCN5CC4)nc3)ccnc2cc1OCCCN1CCOCC1 [Compound 6, N-(5-((6-methoxy-7-(3-morpholinopropoxy)quinolin-4-yl)oxy)pyridin-2-yl)-4-phenyl-7,8-dihydro-6H-5,8-ethanopyrido[3,2-d]pyrimidine-2-carboxamide, hydrochloric acid]
- EC50 (Axl): 3.3 nM
- EC50 (MerTK): 2.5 nM

Compound: COc1cc2c(Oc3ccc(NC(=O)c4cc(N5CCC(O)CC5)ccn4)nc3)ccnc2cc1OCCCN1CCOCC1 [Compound 11, 4-(4-Hydroxypiperidin-1-yl)-N-(5-((6-methoxy-7-(3-morpholino-propoxy)quinolin-4-yl)oxy)pyridin-2-yl)picolinamide]
- EC50 (Axl): 197 nM
- EC50 (MerTK): 86 nM

Compound: COc1cc2c(Oc3ccc(NC(=O)c4ncc(N5CCCCC5)s4)nc3)ccnc2cc1OCCCN1CCOCC1 [Compound 47, N-(5-((6-methoxy-7-(3-morpholinopropoxy)quinolin-4-yl)oxy)pyridin-2-yl)-5-(piperidin-1-yl)thiazole-2-carboxamide]
- EC50 (Axl): 130 nM
- EC50 (MerTK): 119 nM

Compound: COc1cc2c(Oc3ccc(NC(=O)c4cccc(N5CCCC5)n4)nc3)ccnc2cc1OCCCN1CCOCC1 [Compound 26, N-(5-((6-methoxy-7-(3-morpholinopropoxy)quinolin-4-yl)oxy)pyridin-2-yl)-6-(pyrrolidin-1-yl)picolinamide]
- EC50 (Axl): 32 nM
- EC50 (MerTK): 7 nM

Compound: COc1cc2c(Oc3ccc(NC(=O)c4nccc(-c5ccccc5)n4)nc3)ccnc2cc1OCCCN1CCOCC1 [Compound 4, N-(5-((6-Methoxy-7-(3-morpholinopropoxy)quinolin-4-yl)oxy)pyridin-2-yl)-4-phenylpyrimidine-2-carboxamide]
- EC50 (Axl): 5 nM
- EC50 (MerTK): 3.9 nM

Compound: COc1cc2c(Oc3ccc(NC(=O)c4cc(-c5ccccc5)c5c(n4)C4CCN5CC4)nc3)ccnc2cc1OCCCN1CCOCC1 [Compound 7, N-(5-((6-Methoxy-7-(3-morpholinopropoxy)quinolin-4-yl)oxy)pyridin-2-yl)-8-phenyl-3,4-dihydro-2H-1,4-ethano-1,5-naphthyridine-6-carboxamide, hydrochloric acid]
- EC50 (Axl): 18.2 nM
- EC50 (MerTK): 10 nM

Compound: CCOC1CCN(c2ccnc(C(=O)Nc3ccc(Oc4ccnc5cc(OCCCN6CCOCC6)c(OC)cc45)cn3)c2)CC1 [Compound 15, 4-(4-ethoxypiperidin-1-yl)-N-(5-((6-methoxy-7-(3-morpholinopropoxy)quinolin-4-yl)oxy)pyridin-2-yl)picolinamide]
- EC50 (Axl): 257 nM
- EC50 (MerTK): 204 nM

Compound: COc1cc2c(Oc3ccc(NC(=O)c4cc(C)ccn4)nc3)ccnc2cc1OCCCN1CCOCC1 [Compound 32, N-(5-((6-Methoxy-7-(3-morpholinopropoxy)quinolin-4-yl)oxy)pyridin-2-yl)-4-methylpicolinamide]
- EC50 (Axl): 462 nM
- EC50 (MerTK): 162 nM

Compound: COc1cc2c(Oc3ccc(NC(=O)c4cc(-c5ccccc5)c5c(n4)C4CCN5CC4)nc3)ccnc2cc1OCCCN1CCOCC1 [Compound 2, N-(5-((6-Methoxy-7-(3-morpholinopropoxy)quinolin-4-yl)oxy)pyridin-2-yl)-8-phenyl-3,4-dihydro-2H-1,4-ethano-1,5-naphthyridine-6-carboxamide]
- EC50 (Axl): 40.8 nM
- EC50 (MerTK): 47 nM

Compound: CCOC1CCN(c2cccc(C(=O)Nc3ccc(Oc4ccnc5cc(OCCCN6CCOCC6)c(OC)cc45)cn3)n2)CC1 [Compound 29, 6-(4-ethoxypiperidin-1-yl)-N-(5-((6-methoxy-7-(3-morpholinopropoxy)quinolin-4-yl)oxy)pyridin-2-yl)picolinamide]
- EC50 (Axl): 651 nM
- EC50 (MerTK): 690 nM

Compound: COc1cc2c(Oc3ccc(NC(=O)c4csc(-c5ccc(F)cc5)n4)nc3)ccnc2cc1OCCCN1CCOCC1 [Compound 43, 2-(4-fluorophenyl)-N-(5-((6-methoxy-7-(3-morpholinopropoxy)quinolin-4-yl)oxy)pyridin-2-yl)thiazole-4-carboxamide]
- EC50 (Axl): 55.2 nM
- EC50 (MerTK): 44.9 nM

From patent US10851093B2, “Tyrosine kinase inhibitors” (Rigel Pharmaceuticals, Inc., priority 2018, dated 2020)
